Laboratory results as given in patent publication US20230416239A1, “COMPOUNDS AND METHODS FOR TREATING A CYTOKINE-MEDIATED DISEASE” (CONSERVATOIRE NATIONAL DES ARTS ET MÉTIERS, priority 2020, published 2023).

Tests used:
IL-13 = IL-13 (Homo sapiens, UniProt P35225); experiment: Immunoassay binding test, IL-13; conditions: for IC50: IL-13 400 ng/ml, receptor 100 ng/ml, read-out: BINDING IL13 IC50
In short: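 Receptor-coated plates; compounds (100 to 0.78 μM final) preincubated 2 h at 37° C with fixed cytokine, then bound to receptor overnight at 4° C. Bound cytokine detected with biotinylated anti-cytokine antibody and avidin-HRP, OD 450 nm.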

TNFα = TNFα (Homo sapiens, UniProt P01375); experiment: Immunoassay binding test, TNFa; conditions: compounds 100 to 0.78 μM; TNFα 10 ng/ml, receptor 100 ng/ml; read-out: BINDING TNF IC50
Sequence of TNFα (P01375 77-233 limits assumed, species assumed): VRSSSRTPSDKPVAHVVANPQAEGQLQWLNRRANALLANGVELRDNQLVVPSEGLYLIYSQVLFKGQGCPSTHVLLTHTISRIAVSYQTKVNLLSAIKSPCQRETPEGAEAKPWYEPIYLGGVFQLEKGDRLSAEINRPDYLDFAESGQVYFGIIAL
In short: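 ELISA-type binding test: receptor-coated plates blocked with 2% BSA, then cytokine (six-point dilution series) preincubated 2 h at 37 °C and bound overnight at 4 °C. Detection used biotinylated anti-cytokine antibody and avidin-HRP, read as OD at 450 nm. For IL-6, IL-6Ra was present at 200 ng/ml final.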

[1] = tested on: hepatic shock induced by LPS/D-Galactosamine; experiment: LPS/D-Galactosamine induced lethal shock; type: in vivo, Balb/C mice; conditions: 5 mg force-fed in DMSO eight hours before LPS/D-Galactosamine i.p.; 48 hours
Protocol: 7 week-old Balb/C mice (n=10 per group) were force-fed with 100 μl of a solution of DMSO containing 5 mg of compounds 33, 65 or 71 eight hours before receiving an intraperitoneal injection of 200 μl of PBS containing 0.2 μg of LPS and 20 mg of D-Galactosamine. A negative control group (vehicle) was force-fed with 100 μl of a solution of DMSO alone eight hours before to be injected with 200 μl of LPS/D-Galactosamine solution. Mice survival was monitored for 48 hours after the injection of LPS/D-Galactosamine.

TNFa/TNFRI interaction = TNFa/TNFRI interaction (Homo sapiens, UniProt P01375); experiment: TNFa/TNFRI interaction displacement test; type: binding; conditions: for Displacement (%): compounds at 50 μM, human TNFRI 100 ng/ml;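 as to Displacement EC50 TNFa in presence of compound: Difference: SPD304 reference at 20 µM final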
Sequence of TNFa/TNFRI interaction (P01375 77-233 limits assumed): as the sequence (P01375 77-233 limits assumed, species assumed) above
In short: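 Plates coated overnight at 4° C with human TNFRI (100 ng/ml) and blocked with 2% BSA, then test mixtures were incubated overnight at 4° C. Bound cytokine detected with biotinylated anti-cytokine antibody (2 h, 37° C) and avidin-HRP, read as OD at 450 nm.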

IL-4 = biological target: T1, IL-4 (Homo sapiens, UniProt P05112); experiment: Immunoassay binding test, IL-4; conditions: for IC50: IL-4 400 ng/ml, receptor 100 ng/ml, read-out: BINDING IL4 IC50
T1 sequence (P05112 25-153): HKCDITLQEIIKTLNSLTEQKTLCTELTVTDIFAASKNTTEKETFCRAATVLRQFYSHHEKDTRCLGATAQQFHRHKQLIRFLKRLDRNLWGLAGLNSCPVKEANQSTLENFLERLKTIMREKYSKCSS
In short: (§1)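 Detection used OD at 450 nm after biotinylated anti-cytokine antibody and avidin-HRP were applied to receptor-coated wells. Those wells had received, overnight at 4 °C, cytokine preincubated 2 h at 37 °C with compound at final 100 to 0.78 μM. IL-6 mixtures further contained IL-6Ra at 200 ng/ml final.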

IL-6 = IL-6 (Homo sapiens, UniProt P05231); experiment: Immunoassay binding test, IL-6 (gp130 receptor, IL-6Ra present); conditions: IL-6Ra 200 ng/ml
Sequence of IL-6 (P05231 30-212, species assumed): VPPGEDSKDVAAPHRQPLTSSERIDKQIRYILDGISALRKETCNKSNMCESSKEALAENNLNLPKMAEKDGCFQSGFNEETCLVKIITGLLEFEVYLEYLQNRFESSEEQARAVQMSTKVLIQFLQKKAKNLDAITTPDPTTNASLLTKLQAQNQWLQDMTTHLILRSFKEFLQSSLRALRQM
In short: as §1

Sequence of IL-13 (P35225 25-146, species assumed): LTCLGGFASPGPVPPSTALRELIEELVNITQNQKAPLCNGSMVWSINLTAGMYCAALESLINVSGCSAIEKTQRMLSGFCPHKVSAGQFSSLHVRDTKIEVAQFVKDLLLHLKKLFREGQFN

For `O=S(=O)(c1ccccc1)n1cc(CN(CCCCCNC2CCCCC2)Cc2ccncc2)c2ccccc21` [Compound 33], the “BINDING IL13 % Neutra at 100 μM” value (IL-13) was 95.4%, the IC50 (IL-13) was 10.5 µM and the IC50 (TNFα) was 4.6 µM. The survival [1] was 100%, the “Displacement EC50 TNFa in presence of compound: Difference” value (TNFa/TNFRI interaction; Compound EC50 minus SPD304 EC50) was 11.6 ng/mL and the “Displacement (%)” value (TNFa/TNFRI interaction) was 273%. The “BINDING IL4 % Neutra at 100 μM” value (IL-4) was 96%, the IC50 (IL-4) was 4.1 µM and the “BINDING IL6 % Neutra at 100 μM” value (IL-6) was −11.8%.
For `CN(CCOCCN(Cc1cccnc1F)Cc1cn(S(=O)(=O)c2ccccc2)c2ccccc12)C1CCCCC1` [Compound 65, N-(2-(2-(((2-fluoropyridin-3-yl)methyl)((1-(phenylsulfonyl)-1H-indol-3-yl)methyl)amino)ethoxy)ethyl)-N-methylcyclohexanamine], the “BINDING IL13 % Neutra at 100 μM” value (IL-13) was 79.3%, the IC50 (IL-13) was > 50 µM and the IC50 (TNFα) was 5.9 µM. The survival [1] was 60%, the “Displacement (%)” value (TNFa/TNFRI interaction) was 224% and the “BINDING IL4 % Neutra at 100 μM” value (IL-4) was 86.5%. The IC50 (IL-4) was 5.5 µM and the “BINDING IL6 % Neutra at 100 μM” value (IL-6) was 0%.
`O=S(=O)(c1ccccc1)n1cc(CN(CCCCNC2CCCC2)Cc2cccnc2F)c2ccccc21` [Compound 71, N′-cyclopentyl-N^4-((2-fluoropyridin-3-yl)methyl)-N^4-((1-(phenylsulfonyl)-1H-indol-3-yl)methyl)butane-1,4-diamine] was tested, and the “BINDING IL13 % Neutra at 100 μM” value (IL-13) was 89.7%, the IC50 (IL-13) was > 50 µM and the IC50 (TNFα) was 9.8 µM. For the same compound, the survival [1] was 60%, the “Displacement (%)” value (TNFa/TNFRI interaction) was 199% and the “BINDING IL4 % Neutra at 100 μM” value (IL-4) was 92.4%. The IC50 (IL-4) was 6 µM and the “BINDING IL6 % Neutra at 100 μM” value (IL-6) was 2%.
For `CCN(CCOCCN(Cc1cccnc1F)Cc1cn(S(=O)(=O)c2ccccc2)c2ccccc12)C1CCCC1` [Compound 107, N-ethyl-N-(2-(2-(((2-fluoropyridin-3-yl)methyl)((1-(phenylsulfonyl)-1H-indol-3-yl)methyl)amino)ethoxy)ethyl)cyclopentanamine], the “BINDING IL13 % Neutra at 100 μM” value (IL-13) was 66.1%, the IC50 (IL-13) was 25.9 µM and the IC50 (TNFα) was 7.2 µM. For the same compound, the “Displacement (%)” value (TNFa/TNFRI interaction) was 169%, the “BINDING IL4 % Neutra at 100 μM” value (IL-4) was 74.9% and the IC50 (IL-4) was 5.1 µM. For the same compound, the “BINDING IL6 % Neutra at 100 μM” value (IL-6) was 0%.
`CCCN(CCOCCN(Cc1cccnc1F)Cc1cn(S(=O)(=O)c2ccccc2)c2ccccc12)C1CCCC1` [Compound 108, N-(2-(2-(((2-fluoropyridin-3-yl)methyl)((1-(phenylsulfonyl)-1H-indol-3-yl)methyl)amino)ethoxy)ethyl)-N-propylcyclopentanamine] was tested, and the “BINDING IL13 % Neutra at 100 μM” value (IL-13) was 58.8%, the IC50 (IL-13) was 40.4 µM and the IC50 (TNFα) was 9.6 µM. For the same compound, the “Displacement (%)” value (TNFa/TNFRI interaction) was 165%, the “BINDING IL4 % Neutra at 100 μM” value (IL-4) was 76.7% and the IC50 (IL-4) was 9.1 µM. For the same compound, the “BINDING IL6 % Neutra at 100 μM” value (IL-6) was 0%.
For `CCCCN(CCOCCN(Cc1cccnc1F)Cc1cn(S(=O)(=O)c2ccccc2)c2ccccc12)C1CCCC1` [Compound 109, N-butyl-N-(2-(2-(((2-fluoropyridin-3-yl)methyl)((1-(phenylsulfonyl)-1H-indol-3-yl)methyl)amino)ethoxy)ethyl)cyclopentanamine], the “BINDING IL13 % Neutra at 100 μM” value (IL-13) was 7.8%, the IC50 (TNFα) was 11.5 µM and the “Displacement (%)” value (TNFa/TNFRI interaction) was 207%. The “BINDING IL4 % Neutra at 100 μM” value (IL-4) was 86.3%, the IC50 (IL-4) was 9.6 µM and the “BINDING IL6 % Neutra at 100 μM” value (IL-6) was 1%.
